Data: patent US4853398A, “Leukotriene antagonists and use thereas” (Eli Lilly and Company, priority 1987, dated 1989)

System: LTD4 evoked ileal contractions
Assay: LTD4 antagonism: inhibition of LTD4 evoked ileal contractions (isolated guinea pig ileum)
Set-up: species or system guinea pig (male, Hartley)
Conditions: for -log IC50: 50% inhibition of LTD4 responses, interpolated by linear regression from 2-4 concentrations; for Percent inhibition of LTD4 evoked ileal contractions: isolated ileum, five minute exposure
Description: Male, Hartley guinea pigs weighing 200-450 grams were killed by decapitation. A section of terminal ileum was removed, the lumen cleaned, and the tissue divided into 2.5 cm. segments. The ilea were mounted in 10 ml. tissue baths containing Krebs-bicarbonate solution of the following composition in mmoles/liter: KCl, 4.6; CaCl2.2H2 O, 1.2; KH2 PO4, 1.2; MgSO4.7H2 O, 1.2; NaCl, 118.2; NaHCO3, 24.8; and dextrose, 10.0. The bath fluid was maintained at 37° C. and aerated with 95 percent oxygen and 5 percent CO2. In addition, the buffer contained 1×10^-6 M atropine to reduce ileal spontaneous activity. Isometric measurements were made with a Grass FTO3C force-displacement transducer and recorded on a Grass polygraph as change in grams of force. A passive force of 0.5 g. was applied to the tissues. After an appropriate equilibration period, single submaximal control responses to pure LTD4 were obtained. Following a five minute exposure of the ileum to an experimental drug, the control concentration of LTD4 was added to the tissue bath. The response of the ileum to LTD4 in the presence of the drug was compared to the response in the absence of the drug. Various degrees of LTD4 antagonism were obtained using 2-4 different concentrations of an experimental compound on a single ileum.

[1] = compound concentration 1 × 10^-7 M
[2] = compound concentration 3 × 10^-7 M
[3] = compound concentration 3 × 10^-8 M
[4] = compound concentration 3 × 10^-9 M
[5] = compound concentration 1 × 10^-8 M

-log IC50 | Structure (SMILES) | Percent inhibition of LTD4 evoked ileal contractions [1] [%] | Percent inhibition of LTD4 evoked ileal contractions [2] [%] | Percent inhibition of LTD4 evoked ileal contractions [3] [%] | Percent inhibition of LTD4 evoked ileal contractions (compound concentration 1 × 10^-9) [%] | Percent inhibition of LTD4 evoked ileal contractions [4] [%] | Percent inhibition of LTD4 evoked ileal contractions [5] [%]
7.08 | CCCc1c(COc2ccc(Oc3ccc(-c4nnn[nH]4)cc3)cc2)ccc(C(C)=O)c1O [Example 4, 1-[2-Hydroxy-3-propyl-4-({4-[4-(1H-tetrazol-5-yl)-phenoxy]phenoxy}methyl)phenyl]ethanone] | 53 | 80 | 25 | – | – | –
8.58 | CCCc1c(COc2ccc(C(=O)c3cccc(-c4nnn[nH]4)c3)cc2)ccc(C(C)=O)c1O [Example 1, 1-[2-Hydroxy-3-propyl-4-({4-[3-(1H-tetrazol-5-yl)benzoyl]phenoxy}methyl)phenyl]ethanone] | – | 98 | 80 | 21 | 53 | –
8.29 | CCCc1c(COc2ccc(C(=O)c3ccc(-c4nnn[nH]4)cc3)cc2)ccc(C(C)=O)c1O [Example 2, 1-[2-Hydroxy-3-propyl-4-({4-[4-(1H-tetrazol-5-yl)-benzoyl]phenoxy}methyl)phenyl]ethanone] | – | – | – | – | 32 | 72
7.89 | CCCc1c(COc2ccc(C(O)c3cccc(-c4nnn[nH]4)c3)cc2)ccc(C(C)=O)c1O (stereo not shown) [Example 3, 1-{2-Hydroxy-4-[(4-{hydroxy[3-(1H-tetrazol-5-yl)-phenyl]methyl}phenoxy)methyl]-3-propylphenyl}ethanone] | 81 | – | 75 | – | – | 40
